Source: article PMC3394710, “Insight into Temperature Dependence of GTPase Activity in Human Guanylate Binding Protein-1” (PLoS ONE, 2012)
Numbering of substitutions follows the chain as printed.

Columns and labels:
Experiment in all cases: thermal denaturation, tryptophan fluorescence
[1] = target: T1, human guanylate binding protein-1 (hGBP1, wild type whGBP1) (Homo sapiens, UniProt P32455); conditions: 0.5 µM protein, 20 mM Tris-HCl pH 7.5, 100 mM KCl, 5 mM MgCl2, Tm of free protein in the 2nd table, row 6
T1 construct: gene GBP1; purified as in earlier work
T1 sequence (P32455 1-592): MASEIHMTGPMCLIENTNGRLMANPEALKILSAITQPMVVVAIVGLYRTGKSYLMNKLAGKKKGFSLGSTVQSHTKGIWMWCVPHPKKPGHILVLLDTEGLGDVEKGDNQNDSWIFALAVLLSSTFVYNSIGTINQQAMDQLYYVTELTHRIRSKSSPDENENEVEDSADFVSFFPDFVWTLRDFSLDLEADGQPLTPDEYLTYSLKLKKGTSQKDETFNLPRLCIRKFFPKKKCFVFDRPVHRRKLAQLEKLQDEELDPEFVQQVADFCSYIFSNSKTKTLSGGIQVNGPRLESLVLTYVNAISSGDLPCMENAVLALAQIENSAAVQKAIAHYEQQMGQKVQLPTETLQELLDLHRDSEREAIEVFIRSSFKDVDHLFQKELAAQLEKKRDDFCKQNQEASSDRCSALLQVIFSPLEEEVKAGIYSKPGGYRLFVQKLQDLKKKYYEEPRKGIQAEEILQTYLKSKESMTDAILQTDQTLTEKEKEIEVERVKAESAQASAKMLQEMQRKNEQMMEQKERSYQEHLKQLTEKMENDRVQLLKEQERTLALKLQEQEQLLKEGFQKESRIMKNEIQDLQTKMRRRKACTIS
Excerpt: thermal denaturation, tryptophan fluorescence on human guanylate binding protein-1 (hGBP1, wild type whGBP1)

[2] = target: T2, human guanylate binding protein-1 (hGBP1, wild type whGBP1) (Homo sapiens, UniProt P32455, E313A); conditions: 37 °C; 5 mM MgCl2, 100 mM KCl, pH 7.5; ΔCp assumed as in wild type
T2 construct: gene GBP1; purified as in earlier work
T2 sequence (P32455 1-592 E313A): T1 sequence (P32455 1-592) with E313A

[3] = target: T3, human guanylate binding protein-1 (hGBP1, wild type whGBP1) (Homo sapiens, UniProt P32455, S157A); conditions: 37 °C; 5 mM MgCl2, 100 mM KCl, pH 7.5; ΔCp assumed as in wild type
T3 construct: gene GBP1; purified as in earlier work
T3 sequence (P32455 1-592 S157A): T1 sequence (P32455 1-592) with S157A

| SMILES | Heat-induced unfolding / T m / (K) ([1]; 500 µM GDP) | difference in ΔG D between analogue free and bound protein [2] | Heat-induced unfolding / T m / (K) ([1]; 100 µM GppNHp) | difference in ΔG D between analogue free and bound protein [3] |
| --- | --- | --- | --- | --- |
| Nc1nc2c(ncn2[C@@H]2O[C@H](COP(=O)(O)OP(=O)(O)O)[C@@H](O)[C@H]2O)c(=O)[nH]1 [GDP] | 319.9 ± 0.4 K |  |  |  |
| Nc1nc2c(ncn2[C@@H]2O[C@H](COP(=O)(O)OP(=O)(O)NP(=O)(O)O)[C@@H](O)[C@H]2O)c(=O)[nH]1 [GppNHp] |  | 2.4 kcal/mol | 325.2 ± 0.2 K | 0.9 kcal/mol |
